Assay results as given in patent US12503711B2, “Method of producing and processing diamines to a diamine free base using a carbonate intermediate and an engineered microorganism” (Genomatica, Inc., priority 2014, dated 2025).
Several values for one entry are separate records, joined by “and”; a condition that tells them apart may be missing. Equal entries are not always repeated. Where two headings read alike, the source gives them in different places.

Tests used:
[1] = water solubility of the solvent used, cited from earlier work
[2] = Solvent extraction of HMD from aqueous feed (recovery, distribution coefficient, selectivity); type: physicochemical; conditions: for available free base HMD extracted: 1:1 solvent to feed ratio
Procedure: The example describes the solvent extraction of HMD from the CO2 stripped solution prepared in Example 3 above as well as extracting HMD from an aqueous solution without pH adjustment as a control for solvent performance. The following protocol was used in this example:
The pH of the aqueous feed was measured. In a 50 mL falcon tube, 20 g of solvent was mixed with 20 g of feed. This combination was further aggressively mixed in the falcon tube for 5 minutes and vortexed for 1 minute. The tube with the mixed solvent and feed was allowed to settle until phase separation was complete. The volume of the bottom, aqueous layer was recorded. A sample of the top layer was carefully pipetted out the top layer. A sample the bottom layer was also obtained and the pH of the bottom layer measured. The recovery, distribution coefficients and selectivity based on mass balance were calculated.
The extraction data for three solvents extracting HMD from water are set out in Table 4-1.

[3] = Regeneration of HMD free base from CO2-adjusted MM9 solution by air sparge and reflux; type: physicochemical; conditions: for CO2:HMD ratio: based on calculation from pH
Procedure: A 250 mL four-neck flask was fitted with a condenser, temperature probe, and air sparge needle. The system was open to air through the top of the condenser. The feed was an aqueous HMD solution in MM9 where pH was adjusted to 8.68 with CO2. The feed solution was analyzed for HMD concentration by LCMS and the pH was measured. The solution was sparged with air and refluxed at 85° C. for three hours. The resulting solution's pH was taken and the concentration of HMD measured by LCMS.
The concentration increased slightly as some water escaped through the condenser and the solution was concentrated. The fraction of HMD in free base form at pH 11.26 is 57%.

[4] = Simulated fermentation: CO2 and HMD fed into MM9 solution, pH monitored; type: physicochemical; conditions: average rate 3.31 g/L/hr
Excerpt: This example reports the results of a simulated fermentation process. Briefly, CO2 (approximately 98% pure) and HMD (70% HMD from Sigma Aldrich) were fed into an MM9 solution that had the following composition: • 0.68% (6.8 g/L) Disodium phosphate Na2HPO4 • 0.3% (3 g/L) Monopotassium phosphate KH2PO4 • 0.15%(1.5 g/L) Ammonium chloride NH4Cl • 0.1% (1 g/L) Ammonium sulfate (NH4)2SO4 • 0.05% (0.5 g/L) Sodium chloride NaCl
The measured pH of the solution and concentration of HMD added over time are set out in FIG. 30.
This feed rate used in this example corresponds to an average rate of 3.31 g/L/hr (a reasonable production rate in an industrial fermentation process). The final titer and feed concentration of HMD was confirmed by LCMS. The HMD and CO2 reach a dynamic equilibrium around pH 8.5. As more HMD is added, more CO2 is absorbed. The simulated HMD:CO2 ratio is 1.95 for pH=8.53. […] FIGS. 31 and 32 illustrate the relative concentration of species as a function of pH for HMD and H2CO3, respectively.
At pH 8.5 (dashed, black line) the major species in solution are the diprotonated HMD and bicarbonate. A minority presence of HMD-carbamate may be present as well.

[5] = HMD/CO2 pH equilibrium under changing conditions (CO2 sparge, air sparge, heat); type: physicochemical; conditions: for pH (temp. in ° C.): 10% w/w aqueous HMD solution
Procedure: This experiment illustrates HMD/CO2 pH equilibrium under changing conditions. In this example, a 10% w/w aqueous HMD solution was prepared (70% HMD purchased from Sigma Aldrich). The HMD solution was heated to 30° C. and initial pH recorded. Next, CO2 (approximately 98% pure) was bubbled into the solution for 60 min while monitoring pH. The CO2 sparge was stopped. Air was sparged into solution for 30 min while monitoring pH. […] The pH was measured by sampling 3 mL to a falcon tube and cooling to 30° C. […] The solution was cooled to 30° C. and a final pH recorded. The measured pH values are plotted in Graphs 1-1, 1-2 and 1-3, below. It was noted that the temperature probe on pH meter was reading 44.4° C. at […]. and cooled back down to 30° C. by the end of the 60 min. […] This temperature increase can also account for the nonlinearity in FIG. 27-29 because pH decreases with increasing temperature.
Extraction should be possible at this pH. Aeration during fermentation may be able to strip off some of the dissolved CO2.

[6] = HMD in DI water, [HMD] = 835 mM, 20 g solvent : 20 g feed
[7] = HMD in DI water, [HMD] = 835 mM, bottom aqueous layer after extraction, 20 g solvent : 20 g feed
[8] = HMD in deionized (DI) water, [HMD] = 835 mM, aqueous feed before extraction

CCCCCCO [1-hexanol]
% Solubility ([1]; Table 4-1): 0.59% | % Solubility ([1]; Table 4-2): 0.59%

OC1CCCCC1 [Cyclohexanol]
% water in extract [2, 6]: 16.65% | pH after [2, 7]: 12.36 | pH before [2, 8]: 12.70

NCCCCCCN [HMD, Hexamethylenediamine]
available free base HMD extracted ([2]; solvent 1-hexanol): approximately 43% | available free base HMD extracted ([2]; solvent hexane): about 7% | free base HMD available, based on the pH before extraction ([2]; stripped solution from Example 3): 60% | pH ([3]; Feed stream: HMD in MM9, pH adjusted with CO2, @ 21.7° C.): 8.68 @ | CO2:HMD ratio ([3]; Feed stream): 1.91 | pH ([3]; Product stream after air sparge and reflux at 85° C. for three hours, @ 23.5° C.): 11.26 @ | CO2:HMD ratio ([3]; Product stream): 0.277 | fraction of HMD in free base form ([3]; at pH 11.26): 57% | pH after CO2 stripping ([3]; feed pH 8.68 in MM9, air sparge, reflux at 85° C for three hours): 11.26 | pH of dynamic equilibrium of HMD and CO2 [4]: ~8.5 | pH restored by air and heat ([5]; 10% w/w aqueous HMD solution after 60 min CO2 bubbling, then air sparge and heating to 80-88° C, pH read at 30° C): 11.02 | pH (temp. in ° C.) ([5]; Heated to 80° C. for 30 min. w/ sparge, sample cooled to 30 °C): 10.49 | pH (temp. in ° C.) ([5]; Heated to 88° C. for 15 min. w/ sparge, pH at 22.5 °C): 11.02 | pH (temp. in ° C.) ([5]; Heated to 88° C. for 15 min. w/ sparge, pH at 30 °C): 10.76 | pH (temp. in ° C.) ([5]; House air sparge for 30 min. at 30° C., pH at 30 °C): 8.23 | pH (temp. in ° C.) ([5]; Initial conditions, pH at 30 °C): 12.25 | pH (temp. in ° C.) ([5]; Sat open to air over night, pH at 20.6 °C): 10.78 | pH (temp. in ° C.) ([5]; Sparge CO2 for 60 min. at 30° C., pH at 30 °C): 7.96

CCCCCC [Hexane]
% water in extract [2]: <0.001% | pH after [2]: 12.54 and 11.42 | pH before [2]: 12.55 and 11.48 | % Solubility ([1]; Table 4-1): 9.4 × 10^−4%

CC(C)CCO [Isopentanol]
% water in extract [2, 6]: 9.08% | pH after [2, 7]: 12.16 | pH before [2, 8]: 12.70 | % Solubility ([1]; Table 4-1): 2.8%
